{
  "source": "patent US20240335425A1",
  "about": "“PHARMACEUTICAL COMPOSITIONS OF ALPHA-2-ADRENERGIC RECEPTOR AGONISTS AND THEIR USE FOR IMPROVING VISION” (Allergan, Inc., priority 2020, published 2024)",
  "key": {"[1]": {"test_system": "healthy participants", "experiment": "Clinical Study 1 in healthy individuals, single ascending dose", "format": "in vivo, human", "details": "left eye, 0.01% to 0.1% (w/v)", "text": "In this study, 36 healthy participants (male and female; 40 to 65 years of age) are randomized to participate in single-ascending dose cohorts (designated Cohorts 1, 2, and 3 as shown in Table 9 below) to evaluate safety, tolerability, pharmacokinetics, and target engagement of the compound of Formula I. In each cohort of this study 12 participants are randomized in a 3:1 ratio to receive an ophthalmic solution containing the compound of Formula I (9 participants) or vehicle (3 participants). Participants that are randomized to receive the ophthalmic solution containing the compound of Formula I are administered a single drop of the ophthalmic solution containing the compound of Formula I at doses ranging from 0.01% (w/v) to 0.1% (w/v) (Formulations A-C; see Examples 8-10), with the option of also using a 0.3% (w/v) dose (Formulation D; see Example 11), in the left eye, as indicated in Table 7 below (“SD” means single dose and “OS” means left eye).\nEach participant is admitted to the study site on the evening before dosing (Day −1). […]\nSafety and tolerability are evaluated by monitoring participants in the three cohorts of this study for exhibition/reporting of adverse events and monitoring characteristics/assessments such as vital signs, electrocardiogram measurements, clinical laboratory assessments, study intervention tolerability and drop comfort assessments, intraocular pressure measurements, slit-lamp biomicroscopy, and dilated funduscopic examination. Systemic and local pharmacokinetics of the compound of Formula I are evaluated by measuring plasma and tear concentrations of the compound of Formula I in the participants and also determining pharmacokinetic parameters such as area under the curve, clearance, half-life, maximum concentration, time to maximum concentration. Target engagement is measured by measuring the pupil size of the participants during the study. […]"}, "[2]": {"test_system": "Dutch Belted rabbits", "experiment": "In vivo rabbit miosis model (pupil diameter after single topical dose)", "details": "for animals with greater than 2.5 mm reduction in pupil size from baseline: 0.1% w:v, scotopic (<10 lux), n=6", "method": "Female Dutch Belted rabbits (Covance, Princeton, New Jersey) weighing between 2-4 kg were used for these studies. […] For topical dosing, eye drops (volume=35 μl) were instilled into the lower conjunctival sac of the test eye.\nPupil diameter was measured in both the treated and untreated eye with an Optistick to the nearest 0.5 mm. […]"}, "[3]": {"molecular_target": "T1, bovine alpha adrenergic 1A receptor (Bos taurus, UniProt P18130)", "T1 construct": "expressed in transfected cells", "T1 sequence (P18130 1-466)": "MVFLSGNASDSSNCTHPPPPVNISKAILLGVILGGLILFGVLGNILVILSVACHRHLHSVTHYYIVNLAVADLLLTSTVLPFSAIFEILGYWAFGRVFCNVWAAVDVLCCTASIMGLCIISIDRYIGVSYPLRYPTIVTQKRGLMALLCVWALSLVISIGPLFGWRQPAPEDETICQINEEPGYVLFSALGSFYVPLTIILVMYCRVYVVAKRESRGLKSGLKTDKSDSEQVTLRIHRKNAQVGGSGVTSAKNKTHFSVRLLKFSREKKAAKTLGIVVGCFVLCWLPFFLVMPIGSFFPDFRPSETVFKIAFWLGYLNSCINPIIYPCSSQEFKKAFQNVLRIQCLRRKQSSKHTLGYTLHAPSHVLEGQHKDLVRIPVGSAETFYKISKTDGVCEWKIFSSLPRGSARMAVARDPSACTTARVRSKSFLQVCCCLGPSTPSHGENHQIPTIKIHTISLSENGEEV", "experiment": "FLIPR calcium assay, HEK293 cells stably expressing bovine alpha 1A receptor", "format": "cell-based", "details": "HEK293 stable cell line, peak calcium signal; read-out: bovine alpha1A EC50 (nm)", "method": "An in vitro FLIPR (fluorometric image plate reader) assay was performed on several compounds, including the compound of Formula I (entry 1 in Table 1).\nSpecifically, four HEK293 stable cell lines were used in the FLIPR assay. The HEK293 cell line which stably expressed the bovine alpha adrenergic 1A receptor was used to characterize the alpha1 pharmacology. The alpha-2 adrenergic receptor family is a G coupled G-protein receptor. Therefore, in order to use these cell lines in the calcium based FLIPR assay, the chimeric G-protein Gqi5 was used to force the coupling of the human alpha-2A, alpha-2B, and alpha-2C receptors to the calcium pathway. […]\nThe receptor activation was initiated by the addition of the appropriate dilutions of compounds and the transient calcium signal was captured. The peak height of the calcium curve was determined and utilized for calculation of EC50 and relative efficacy values using Activity Base software. EC50 was calculated using a 4 Parameter Logistic Equation: y=A+((B−A)/(1+((C/x)^D))) where A and B represents the bottom and top plateau of the curve; C represents the EC50 value; D represents the slope factor; and x and y represent the original x (drug concentration) and y (fluorescence signal, RFU) values."}},
  "data": [
    {"smiles": "Cc1c(N=C2NCCN2)ccc2[nH]cnc12", "note": "[Compound 1]", "values": [
      {"measurement": "pupil diameter compared with vehicle", "setting": "[1]", "value": "decrease in pupil diameter"},
      {"measurement": "safety and tolerability", "setting": "[1]", "value": "acceptable safety and tolerability profiles"},
      {"measurement": "systemic exposures", "setting": "[1]", "value": "sufficient safety margins"},
      {"measurement": "animals with greater than 2.5 mm reduction in pupil size from baseline", "setting": "[2]; after 6 hours", "value": "more than half"},
      {"measurement": "animals with greater than 2.5 mm reduction in pupil size from baseline", "setting": "[2]; two hours after dosing", "value": "virtually all animals"},
      {"measurement": "miotic action (peak pupil constriction and duration)", "setting": "[2]; room lighting conditions, versus brimonidine", "value": "greater miotic action than brimonidine"},
      {"measurement": "effect on pupil constriction compared to Compound 3", "setting": "[2]; topical dose", "value": "greater effect on pupil constriction"},
      {"measurement": "pupil constriction at 9 hours after dosing", "setting": "[2]; topical dose, 9 hours", "value": "significant pupil constriction"},
      {"measurement": "miotic efficacy compared with other alpha adrenergic receptor agonists", "setting": "[2]; topical dose, low-light conditions (2-10 Lux)", "value": "best miotic effect"},
      {"measurement": "EC50", "setting": "[3]", "value": 286, "unit": "nM"}
    ]}
  ]
}
